According to publication PMC11813584, “An odorant-binding protein functions in fire ant social immunity interfacing with innate immunity” (Open Biology, 2025):
Entries after “also recorded” stand apart in the source; their conditions may differ. Where two headings read alike, the source gives them in different places.

Key:
SiFABP5 = SiFABP5 (Solenopsis invicta, UniProt Z9HHL8OTK9); assay: 1-NPN fluorescent binding / competition assay, purified SiFABP5; conditions: 1-NPN displacement; 2 μM 1-NPN, 2 μM protein; read-out: Kapp, competition, SiFABP5
Chain of SiFABP5 (Z9HHL8OTK9 1-133): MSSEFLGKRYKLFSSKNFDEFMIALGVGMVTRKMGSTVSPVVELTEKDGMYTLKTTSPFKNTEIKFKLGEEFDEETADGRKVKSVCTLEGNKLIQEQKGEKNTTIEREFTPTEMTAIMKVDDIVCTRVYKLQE
Procedure: (§1) The ORFs corresponding to SiOBP15, SiApoLp-III and SiFABP5 were separately cloned into the pET28a expression vector as His-tag fusion proteins. The integrity of plasmid constructs was verified by sequencing and plasmids were transformed into the Escherichia coli BL21 strain for heterologous protein expression. Proteins were purified using a nickel affinity (NI) resin (Ni-Sepharose Cl-6B agarose) according to the manufacturer’s protocol. Purified proteins were analysed by SDS–PAGE for purity and further confirmed by western blotting using an anti-His tag antibody as the probe. […] Protein–protein interactions between SiOBP15 and SiApoLp-III and SiOBP15 and SiFABP5 were analysed using open surface plasmon resonance (SPR) by coupling the SiOBP15 protein (ligand) to a COOH chip until saturation. […] Binding kinetics were analysed by titration of the proteins. […] Dissociation constants were calculated using TraceDrawer (Ridgeview Instruments ab, Sweden) with a one-to-one interaction model.
(§2) N-phenyl-1-naphthylamine (1-NPN) was used as a probe for competition (displacement) based fluorescent binding assays as previously described. Samples were analysed using a Hitachi F-2000 fluorescence spectrophotometer at an excitation wavelength of 350 nm and an emission wavelength of 420 nm. […]

SiOBP15 = SiOBP15 (Solenopsis invicta, UniProt F1DI94); assay: 1-NPN fluorescent binding / competition (displacement) assay, purified SiOBP15; conditions: for binding to SiOBP15 (in words): 1-NPN competition, SiOBP15 alone
Chain of SiOBP15 (F1DI94 entry or part of it): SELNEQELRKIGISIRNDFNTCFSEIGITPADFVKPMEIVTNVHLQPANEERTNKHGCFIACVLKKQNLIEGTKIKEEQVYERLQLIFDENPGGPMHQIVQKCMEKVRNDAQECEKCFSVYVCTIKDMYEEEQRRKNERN
Procedure: (§3) The ORFs corresponding to SiOBP15, SiApoLp-III and SiFABP5 were separately cloned into the pET28a expression vector as His-tag fusion proteins. The integrity of plasmid constructs was verified by sequencing and plasmids were transformed into the Escherichia coli BL21 strain for heterologous protein expression. Proteins were purified using a nickel affinity (NI) resin (Ni-Sepharose Cl-6B agarose) according to the manufacturer’s protocol. Purified proteins were analysed by SDS–PAGE for purity and further confirmed by western blotting using an anti-His tag antibody as the probe. His-tags were removed by protease cleavage, and after determining final protein concentrations, aliquots of the purified protein samples were maintained at −80°C. Protein–protein interactions between SiOBP15 and SiApoLp-III and SiOBP15 and SiFABP5 were analysed using open surface plasmon resonance (SPR) by coupling the SiOBP15 protein (ligand) to a COOH chip until saturation. Purified SiFABP5 and SiApoLp-III proteins (analytes) were then added to analyse the kinetics of the interaction between these proteins. Binding kinetics were analysed by titration of the proteins. All experiments were performed three times with the same ‘chip’, and the entire experiment was repeated with three independent COOH-SiOBP15 chip. Dissociation constants were calculated using TraceDrawer (Ridgeview Instruments ab, Sweden) with a one-to-one interaction model.
(§4) N-phenyl-1-naphthylamine (1-NPN) was used as a probe for competition (displacement) based fluorescent binding assays as previously described. Samples were analysed using a Hitachi F-2000 fluorescence spectrophotometer at an excitation wavelength of 350 nm and an emission wavelength of 420 nm. The binding constant of the purified proteins to 1-NPN was determined over a substrate concentration range from 2 to 20 μM using 1.0 μM protein in 10 mM HEPES, 100 mM NaCl buffer, pH 7.5. Subsequent competition/displacement assays using test ligands were performed using a concentration of 2 μM 1-NPN, 2 μM protein and 2−40 μM test ligand. Dissociation constants (Kd) for 1-NPN were calculated by Scatchard plot analyses using GraphPad Prism 8 Software (GraphPad, La Jolla, CA, USA). The dissociation constants of test ligands (Kapp) in 1-NPN competition assays were calculated using the concentration of test ligand required to displace 50% of the 1-NPN signal (IC50) values using the following equation: Kapp = (IC50)/(1 + (1 − NPN)/K1 – NPN).

SiOBP15 + SiFABP5 = SiOBP15 + SiFABP5 (Solenopsis invicta, UniProt F1DI94+Z9HHL8OTK9); assay: 1-NPN fluorescent binding / competition assay, SiOBP15 co-incubated with SiFABP5; conditions: 1-NPN displacement; co-incubation of SiOBP15 with SiFABP5; read-out: Kapp, competition, SiOBP15 + SiFABP5
Chain of SiOBP15 + SiFABP5 (F1DI94 23-162 limits assumed): as the sequence (F1DI94 entry or part of it) above
Chain of SiOBP15 + SiFABP5 (Z9HHL8OTK9 1-133): as the sequence (Z9HHL8OTK9 1-133) above
Procedure: as §1, §2

SiOBP15 + SiApoLp III = SiOBP15 + SiApoLp III (Solenopsis invicta, UniProt F1DI94); assay: 1-NPN fluorescent binding / competition assay, SiOBP15 co-incubated with SiApoLp-III
Chain of SiOBP15 + SiApoLp III (F1DI94 entry or part of it): as the sequence (F1DI94 entry or part of it) above
Chain of SiOBP15 + SiApoLp III (Q6B972 entry or part of it, further chain): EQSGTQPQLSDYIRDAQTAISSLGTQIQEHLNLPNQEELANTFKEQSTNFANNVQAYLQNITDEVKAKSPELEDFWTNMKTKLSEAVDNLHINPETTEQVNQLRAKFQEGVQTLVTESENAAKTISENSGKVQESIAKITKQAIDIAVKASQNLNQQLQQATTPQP
Procedure: as §3, §4

S. invicta workers = assay: Dismemberment behavioural assay; format: in vivo, Solenopsis invicta; conditions: for dismemberment behaviour towards freeze-killed ants treated with the compound: healthy / untreated and GFP-RNAi workers, compared to freeze-killed control ants; for effect on behaviour: corpse-dismemberment of freeze-killed conspecifics treated with the chemical; for corpse dismemberment, RNAi targeting SiOBP15 + SiApoLp-III: dual RNAi; for corpse dismemberment, RNAi targeting SiOBP15 + SiApoLp-III / corpse dismemberment, RNAi targeting SiApoLp-III / corpse dismemberment, RNAi targeting SiFABP5 / corpse dismemberment, RNAi targeting SiOBP15 / corpse dismemberment, GFP RNAi (control) workers: freeze-killed corpses + chemical; for corpse dismemberment, RNAi targeting SiOBP15 + SiApoLp-III / corpse dismemberment, RNAi targeting SiApoLp-III / corpse dismemberment, RNAi targeting SiFABP5 / corpse dismemberment, RNAi targeting SiOBP15: compared to freeze-killed workers treated with the same chemical; for corpse dismemberment, GFP RNAi (control) workers: compared to freeze-killed, no additions
Procedure: Fresh corpses of workers killed by either rapid immersion in liquid nitrogen were collected and maintained at −80°C until use. Infection was performed by immersing workers for 5 s in 1 × 10^8 suspensions of fungal conidia. Infected workers were kept in isolated boxes until mortality (3–4 days) and were then used immediately for dismemberment assays. Each technical replicate of a dismemberment assay used five workers selected from different treatment groups (i.e. killed by freezing, killed by B. bassiana or subjected to another treatment as indicated). Of the five ‘killed’ workers, […] near the edge of the container in a ‘+’ pattern of a plastic container (9 cm diameter) and one in the centre. To each container was added 15 healthy workers or 15 workers treated as described below (e.g. RNAi treated). Containers contained an Eppendorf tube with a sterile solution of 5% sucrose. Corpse-dismemberment behaviour was assessed every 12 h for three consecutive days, and corpse limbs or other parts that were dismembered were counted. The corpse-dismemberment percentage was calculated by dividing the total number of dismembered parts (5 corpses × 10 body parts/each cage/3 days). Each experiment contained three technical replicates, and the entire experiment was repeated at least three times.
The specific dsRNA primers used in this study were synthesized using an in vitro transcription T7 kit (TAKARA, Dalian, China; electronic supplementary material, table S1). dsRNA concentrations were measured using a NanoVue Plus spectrophotometer (GE Healthcare Life Sciences, Little Chalfont, UK). In total, 50 nl of dsRNA of either the target genes or DsRNA-GFP (control) at indicated concentrations (up to 3000 ng μl^−1) were injected into each worker. Dismemberment assays were performed as above with three technical replicates, and each experiment was repeated at least three times using three different batches of ants. RNAi efficiencies was analysed by qRT-PCR.

[1] = 1-NPN displacement; co-incubation of SiOBP15 with SiApoLp-III; read-out: Kapp, competition, SiOBP15 + SiApoLp III
[2] = read-out: Kapp, competition, SiOBP15 + SiApoLp III; 1-NPN displacement; co-incubation of SiOBP15 with SiApoLp-III
[3] = 1-NPN displacement, 2 μM 1-NPN, 2 μM protein, 2-40 μM test ligand, read-out: Kapp, competition, SiOBP15

binding to SiOBP15 (in words) (SiOBP15) | binding to SiOBP15 incubated with SiApoLp-III (in words) (SiOBP15 + SiApoLp III; 1-NPN competition, complex) | Ki (SiOBP15 + SiApoLp III; [1]) | Ki (SiOBP15; [3]) | Molecule | dismemberment behaviour towards freeze-killed ants treated with the compound (S. invicta workers) | corpse dismemberment, RNAi targeting SiOBP15 + SiApoLp-III (S. invicta workers) | corpse dismemberment, RNAi targeting SiApoLp-III (S. invicta workers) | corpse dismemberment, RNAi targeting SiFABP5 (S. invicta workers) | corpse dismemberment, RNAi targeting SiOBP15 (S. invicta workers) | corpse dismemberment, GFP RNAi (control) workers (S. invicta workers) | further results
able to bind |  |  |  | 3-octenol |  |  |  |  |  |  | Ki (SiFABP5): 15.7 µM; Ki (SiOBP15 + SiFABP5): 12.6 µM
 |  |  |  | c1ccc(Nc2cccc3ccccc23)cc1 [1-NPN, N-phenyl-1-naphthylamine, reference compound] |  |  |  |  |  |  | Kd (SiOBP15 + SiApoLp III; read-out: dissociation constant of 1-NPN to SiOBP15 + SiApoLp-III; co-incubation; modelled to single 1-NPN binding sites): 18.2 µM; Kd (SiOBP15; Kd of 1-NPN to SiOBP15 (printed in figure 2C), SiOBP15+NPN, unit inferred): 16.9 µM; Kd (SiOBP15; Kd of 1-NPN to SiOBP15, Scatchard analysis, 1.0 μM protein, 2 to 20 μM 1-NPN): 16.9 µM
binds | limited binding | 70.9 µM |  | CC(=O)C(C)=O [2,3 butanedione] | No significant effects |  |  |  |  |  | 
 |  |  |  | CC1CCOC1=O (stereo not shown) [3-methyltetrahydro-2-furanone] | No significant effects |  |  |  |  |  | Ki (SiOBP15 + SiApoLp III; [2]): 57.2 µM; Ki (SiOBP15): 16 µM
 |  | > 500 µM | 15.2 µM | CCCCC=CCCO [3-octenol] |  |  |  |  |  |  | 
binds | limited binding | 83.3 µM | 26.5 µM | CC(=O)C(C)O (stereo not shown) [acetoin] | No significant effects |  |  |  |  |  | 
 |  |  |  | CCCCCCCCCCCCCCCCCCCCCC(=O)O [behenic acid] | significant increase; also recorded: induced dismemberment behaviour; also recorded: induces corpse-dismemberment | decreased^b | decreased^b | no change^b | slight decrease^b | increased^a | Ki (SiOBP15 + SiApoLp III; [2]): 19.3 µM; Ki (SiOBP15): 14 µM; effect on behaviour (S. invicta workers): induces dismemberment
able to bind | did not show binding | > 500 µM | 25.8 µM | CCCCC/C=C\C/C=C\CCCCCCCC(=O)O [linoleic acid, cis,cis-9,12-linoleic acid] | significantly reduced | increased^c | no change^c | increased^c | increased^c | decreased^a | effect on behaviour (S. invicta workers): inhibits dismemberment; dismemberment behaviour towards freeze-killed ants treated with the compound (S. invicta workers; listed as cis, cis-9,12-linoleic acid): inhibit this behaviour; dismemberment behaviour towards freeze-killed ants treated with the compound (S. invicta workers; listed as cis,cis-9,12-linoleic acid): significant decrease
 |  |  |  | C=CC(=C)CCC=C(C)C [myrcene] | No significant effects |  |  |  |  |  | 
 |  |  |  | CCCCCCCCCCC/C=C/CCCCC(=O)O [trans-6-octadecenoic acid] | No significant effects |  |  |  |  |  | 
No binding |  | > 500 µM | > 500 µM | CCCCCCCC/C=C/CCCCCCCCCC(=O)O [trans-11-eicosenoic acid] | No significant effects; also recorded: did not alter dismemberment behaviour | no change^e | no change^e | no change^e | no change^e | no change^a | 

Molecule | binding to SiOBP15 (in words) (SiOBP15) | binding to SiOBP15 incubated with SiApoLp-III (in words) (SiOBP15 + SiApoLp III; 1-NPN competition, complex) | Ki (SiOBP15 + SiApoLp III; [1]) | Ki (SiOBP15; [3]) | dismemberment behaviour towards freeze-killed ants treated with the compound (S. invicta workers) | corpse dismemberment, RNAi targeting SiOBP15 + SiApoLp-III (S. invicta workers) | corpse dismemberment, RNAi targeting SiApoLp-III (S. invicta workers) | corpse dismemberment, RNAi targeting SiFABP5 (S. invicta workers) | corpse dismemberment, RNAi targeting SiOBP15 (S. invicta workers) | corpse dismemberment, GFP RNAi (control) workers (S. invicta workers) | further results
CCCCCCCC/C=C\CCCCCCCC(=O)O [oleic acid] | able to bind | did not show binding |  |  | significant decrease; also recorded: reduced dismemberment behaviour; also recorded: inhibit this behaviour | no change^d | no change^d | no change^d | no change^d | decreased^a | Ki (SiOBP15 + SiApoLp III; [2]): > 500 µM; Ki (SiOBP15): 15.5 µM; effect on behaviour (S. invicta workers): inhibits dismemberment
